# Source: article PMC11763059, “GENI as an AMPK Activator Binds α and γ Subunits and Improves the Memory Dysfunction of Alzheimer’s Disease Mouse Models via Autophagy and Neuroprotection” (Antioxidants, 2025)
# Experiments:
# PC12 cells = experiment: Total SOD enzymatic activity assay in PC12 cells; format: cell-based; conditions: compared with the H2O2-treated group
# Description: To determine ROS levels in PC12 cells, we seeded 5 × 10^4 PC12 cells in each well of a 24-well plate. Cells were treated with RES (10 μM) or GENI (1, 3, and 10 μM) for 24 h, followed by 0.8 mM H2O2 for 1 h. DCFH-DA (2,7-dichlorodihydrofluorescein diacetate, final concentration, 10 μM) was then added to each well and incubated for 30 min. Cells were washed with PBS to remove extracellular DCFH-DA, and intercellular ROS was detected by using a SpectraMax M3 multimode microplate reader (Molecular Devices Corporation, San Jose, CA, USA) at an excitation wavelength of 488 nm and an emission wavelength of 525 nm. Meanwhile, DCF in PC12 cells was observed using a fluorescence microscope (HCS, Thermo Fisher, Science, Waltham, MA, USA). To detect malondialdehyde (MDA) content and total SOD enzymatic activities in PC12 cells, we seeded 2 × 10^6 PC12 cells in 60 mm dishes containing 5 mL of DMEM and cultured the cells for 24 h. PC12 cells were treated with RES (10 μM) or GENI (3 or 10 μM) for 24 h and then treated with 0.8 mM H2O2 for 1 h to determine the MDA content and total superoxide dismutase (SOD) activities. Cells were lysed and centrifuged. […] MDA quantification and total SOD activities were determined using MDA and SOD enzyme activity assay kits (Nanjing Jiancheng Bioengineering Institute, Nanjing, China) following the manufacturer’s instructions.
# [1] = target: T1, AMPK-s7 (γ subunit- D316A) (Rattus norvegicus, UniProt P54645+P80385, D316A); experiment: SPR analysis, AMPK mutant s7; format: binding
# T1 construct: His (N); made in house
# T1 sequence (P54645 13-559 limits assumed): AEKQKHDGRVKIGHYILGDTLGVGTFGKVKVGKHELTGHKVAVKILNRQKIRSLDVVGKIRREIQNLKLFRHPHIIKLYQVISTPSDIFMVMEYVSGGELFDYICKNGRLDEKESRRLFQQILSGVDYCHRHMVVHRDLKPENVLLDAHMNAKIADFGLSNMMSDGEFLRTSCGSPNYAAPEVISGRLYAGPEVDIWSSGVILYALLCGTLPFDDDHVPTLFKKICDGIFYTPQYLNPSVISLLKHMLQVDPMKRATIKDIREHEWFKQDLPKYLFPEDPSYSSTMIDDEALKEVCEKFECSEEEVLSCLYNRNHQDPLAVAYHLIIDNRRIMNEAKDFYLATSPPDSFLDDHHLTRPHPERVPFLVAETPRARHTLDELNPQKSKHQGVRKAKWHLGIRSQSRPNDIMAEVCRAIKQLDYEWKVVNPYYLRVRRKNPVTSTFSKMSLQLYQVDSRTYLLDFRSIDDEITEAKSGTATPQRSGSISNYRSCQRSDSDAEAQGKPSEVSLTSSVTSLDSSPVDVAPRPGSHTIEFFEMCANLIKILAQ
# T1 sequence (P80386 whole entry partner): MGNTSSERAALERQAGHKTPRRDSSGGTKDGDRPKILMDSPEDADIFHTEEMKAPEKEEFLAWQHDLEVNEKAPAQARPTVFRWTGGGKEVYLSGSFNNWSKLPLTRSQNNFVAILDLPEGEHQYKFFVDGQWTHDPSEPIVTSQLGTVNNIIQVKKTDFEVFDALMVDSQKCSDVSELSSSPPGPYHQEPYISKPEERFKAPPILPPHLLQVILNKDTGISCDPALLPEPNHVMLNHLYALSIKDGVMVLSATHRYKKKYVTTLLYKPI
# T1 sequence (P80385 whole entry D316A): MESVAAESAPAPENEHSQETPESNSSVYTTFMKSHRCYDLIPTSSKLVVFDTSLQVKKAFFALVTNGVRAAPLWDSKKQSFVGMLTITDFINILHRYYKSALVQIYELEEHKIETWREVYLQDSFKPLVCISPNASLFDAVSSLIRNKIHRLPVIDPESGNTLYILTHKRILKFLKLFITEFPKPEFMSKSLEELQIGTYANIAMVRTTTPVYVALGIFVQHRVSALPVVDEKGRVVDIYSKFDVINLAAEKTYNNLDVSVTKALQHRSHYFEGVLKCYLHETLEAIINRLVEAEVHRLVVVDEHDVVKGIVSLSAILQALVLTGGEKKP
# Description: Mammalian AMPK subunits (His-α1, β1, and γ1) were cloned into a pET-3d vector, and protein expression and purification were similar to the literature.
# SPR analysis was performed with a Biacore T200 instrument (GE Healthcare). Firstly, the purred His-tagged AMPK containing α1β1γ1 protein was captured onto an activated carboxymethylated 5 (CM5) chip using amine coupling to levels ranging from 4000 RU to 6000 RU. Secondly, GENI was dissolved in PBS-P buffer solution (0.05% (v/v) Tween 20 and PBS), and the concentration of GENI was 64 μM. Thirdly, the solution of GENI was diluted to 32 μM, 16 μM, 8 μM, 4 μM, 2 μM, 1 μM and 0.5 μM with PBS-P buffer solution. The sample was filtered by pumping through a […] membrane. A gradient concentration of GENI was injected at a flow rate of 30 μL/min in a running buffer (0.05% (v/v) Tween 20 and PBS). The data were analyzed with Biacore evaluation software (T200 version 2.0) and fitted to the 1:1 Langmuir binding model, and the kinetic parameters were derived.
# The non-covalent interaction between drugs and proteins is an important way to exert drug efficacy, and its mode of action and binding affinity usually determine the utilization and biological activity of drugs. AMPK is a heterotrimer complex consisting of an α subunit containing the kinase domain and two regulatory subunits (β- and γ-). Different action sites have varied or even opposite pharmacological effects. The molecular mechanism of interaction between the protein and molecule should be investigated thoroughly. After co-incubation of GENI and AMPK, LC-MS/MS measurements were performed to predict the binding sites. As shown in Extended Data Figure S2, ASP148, ASP157 and ASP166 of the AMPK α subunits and LYS148, ASP156, LYS309, and ASP316 of the AMPK γ subunit were possible to the binding sites of GENI. […] Thus, all of these seven sites affected the binding of GENI and AMPK to varying degrees, and they were located in the C lobe kinase domain of the AMPK α subunit, and the CBS2 and CBS4 domain of the AMPK γ subunit, respectively.
# D-gal-induced AD mice = experiment: Behaviour tests in D-gal-induced AD mice; format: in vivo
# Description: Each group comprised 10 mice. […] Dosing lasted for 10 weeks. […] The mice were sacrificed after 10 weeks of administration.
# The Y-maze is mainly used to study the spatial working memory ability of rodents. The Y-maze consisted of three equal-length arms (50 cm × 18 cm × 35 cm), and the angle between each two arms was 120 degrees. The mice were placed at the end of any arm of the Y-maze and allowed to explore freely for 8 min. The behavioral changes including the total number of entries and alternation (successively entering all three arms of the Y-maze once in turn) were recorded. Percentage altercation = alternation/(entries-2) × 100%. The Y-maze could effectively reflect the ability of animals to recognize and remember novel environments.
# NOR was used to detect memory in rodents. We prepared a 40 × 40 × 40 cm square box, camera equipment, and behavioral analysis software. We chose three objects A, B, and C, where objects A and B were exactly the same, and object C was very different from objects A and B. After the start of the experiment, the mice were allowed to acclimate freely in the experimental apparatus for 10 min. Objects A and B were placed into the box, and the mice were allowed to explore for 5 min. We then recorded the exploration time and times. After 1 h, A and C or B and C were placed into the box. After letting the mice explore for 5 min, we recorded the exploration time of the original object and the new object. Discrimination index = exploration time of new objects/total exploration time × 100%.
# The MWM installation consisted of a circular pool (120 cm in diameter and 50 cm in height), camera equipment, and a computer analysis system. In the first stage, the platform position was fixed, and mice were placed into the pool from any three of the four origins on the pool facing away from the pool wall. The time when it took for the mouse to find the platform within 120 s, called escape latency, was recorded. The training period lasted 4 days. The escape latency of the mice was recorded daily, and the average value was used as an index to evaluate the ability of learning and memory. On the 5th day, the platform was evacuated by the experimenter. The mice were placed against the platform into the water from any water entry point, and they were allowed to swim freely for 60 s. We then recorded the number of times that they crossed the platform.
# The rationale for the three-box social test is based on the fact that mice are naturally gregarious and tend to explore new objects. The experimental device consisted of three rectangular boxes, each with a size of 19×45 cm, with a channel in the middle to allow the three boxes to connect with one another. Two metal cages of the same size were placed in the centre of the left and right boxes. Firstly, the mice were placed in the box for 10 min. Secondly, stranger 1 mouse was randomly placed in the metal cage in the left or right box, and the metal cage in the other box was empty. The experimental mice were placed in the box for 10 min. The number and duration of direct contact between the experimental mice and stranger 1 were recorded. Thirdly, strange 2 mice were placed in the empty metal cage of the second stage experiment and then recorded for 10 min. We observed the time and number of contacts between stranger 1 and stranger 2 and calculated the social preference and sociability index.
# [2] = GENI administration group compared with the D-gal model group
compound,measurement,setting,value
"CC(C)CCOC(=O)C1=CO[C@@H](O[C@@H]2O[C@H](CO)[C@@H](O)[C@H](O)[C@H]2O)C2C(CO)=CCC12 (stereo partly shown) [GENI, Geniposidic 4-isoamyl ester]",total SOD activity,PC12 cells,increased
same,Kd,[1]; SPR,6.46 µM
same,kon,"[1]; SPR, association rate, read-out: Ka",808 M⁻¹ s⁻¹
same,response (RU) in SPR,"[1]; point mutation of D316, versus wild-type",significantly reduced
same,rate of alternating arms in the Y maze test,"D-gal-induced AD mice; GENI 25 and 50 mg/kg i.g., versus D-gal group",significantly increase
same,escape latency in the Morris water maze test,D-gal-induced AD mice; [2],significantly reduced
same,number of crossing platforms in the Morris water maze test,D-gal-induced AD mice; [2],significantly increased
same,cognitive index and object recognition index in the NOR experiment,"D-gal-induced AD mice; GENI i.g., versus D-gal group",significantly increased
same,sociability and social preferences (three-box social experiment),D-gal-induced AD mice; GENI-administered groups,significant social skills and social preferences
same,optimal dose for anti-AD effect,D-gal-induced AD mice; comparable to the effect of DON at a dose of 3 mg/kg,25 mg/kg
